According to publication PMC9687286, “Hydrophobic Rose Bengal Derivatives Exhibit Submicromolar-to-Subnanomolar Activity against Enveloped Viruses” (Biomolecules, 2022):
Counter-ions that a name gives are not always drawn.

Tests used:
[1] = test system: SARS-CoV-2 strain PIK35; experiment: microbe, parasite or virus in culture; assay type: cell-based; conditions: Severe acute respiratory syndrome coronavirus 2, Vero, read-out: EC50 (M ± SD), SARS-CoV-2
[2] = test system: Enterovirus A Coxsackievirus A16 (CVA16) isolate 49360; experiment: microbe, parasite or virus in culture; assay type: cell-based; conditions: RD, 120 h, read-out: EC50 (M ± SD), CVA16
[3] = test system: CHIKV strain Nic; experiment: microbe, parasite or virus in culture; assay type: cell-based; conditions: Chikungunya virus, Vero, read-out: EC50 (M ± SD), CHIKV
[4] = Cell viability assay (resazurin) for Vero cells; conditions: African green monkey, confluent Vero cell monolayers
[5] = Cell viability assay for MT-4 cells; conditions: human
[6] = test system: Enterovirus C vaccine strain Sabin 1 of poliovirus type 1 (PV1); experiment: microbe, parasite or virus in culture; assay type: cell-based; conditions: RD, 120 h, read-out: EC50 (M ± SD), PV1
[7] = Cell viability assay for RD cells; conditions: human
[8] = test system: Enterovirus B Echovirus 13 (E13) isolate 57088; experiment: microbe, parasite or virus in culture; assay type: cell-based; conditions: RD, 120 h, read-out: EC50 (M ± SD), E13
[9] = test system: HIV-1 strain NL4-3; experiment: microbe, parasite or virus in culture; assay type: cell-based; conditions: Human immunodeficiency virus 1, NL43, MT4, 168 h, read-out: EC50 (M ± SD), HIV
[10] = physchem; conditions: aqueous with cosolvent or surfactant or cyclodextrin

Row | Structure (SMILES) | EC50 [1] [µM] | EC50 [2] [µM] | EC50 [3] [µM] | CC50 at 5 days [4] [µM] | CC50 at 7 days [5] [µM] | EC50 [6] [µM] | CC50 at 5 days [7] [µM] | EC50 [8] [µM] | EC50 [9] [µM] | solubility kinetic [10] [µM]
1 | CCCCCCCCOC(=O)c1c(Cl)c(Cl)c(Cl)c(Cl)c1-c1c2cc(I)c(=O)c(I)c-2oc2c(I)c(O)c(I)cc12 [2c, Rose Bengal N-Octyl Ester, Monosodium Salt] | 5.3 ± 1.3 | > 100 | 0.0002 ± 0.0001 | 53 ± 25 | 42 ± 10 | > 100 | 21.3 ± 5.2 | > 100 | 8.8 ± 3.7 | –
2 | CCCCOC(=O)c1c(Cl)c(Cl)c(Cl)c(Cl)c1-c1c2cc(I)c(=O)c(I)c-2oc2c(I)c(O)c(I)cc12 [2a, Rose Bengal N-Butyl Ester, Monosodium Salt] | 0.05 ± 0.02 | > 100 | 0.004 ± 0.002 | 8 ± 1 | 15 ± 4 | > 100 | 21.3 ± 5.2 | > 100 | 6.3 ± 2.6 | 3.1
3 | CCCCCCCCCCOC(=O)c1c(Cl)c(Cl)c(Cl)c(Cl)c1-c1c2cc(I)c(=O)c(I)c-2oc2c(I)c(O)c(I)cc12 [2d, Rose Bengal N-Decyl Ester, Monosodium Salt] | 6.6 ± 3.1 | > 100 | 0.002 ± 0.001 | 60 ± 15 | 42 ± 10 | > 100 | 10.7 ± 2.6 | > 100 | 8.8 ± 2.6 | –
4 | CCCCCCCCCCCCOC(=O)c1c(Cl)c(Cl)c(Cl)c(Cl)c1-c1c2cc(I)c(=O)c(I)c-2oc2c(I)c(O)c(I)cc12 [2e, Rose Bengal N-Dodecyl Ester, Monosodium Salt] | 43 ± 10 | > 100 | 0.038 ± 0.03 | > 100 | > 50 | > 100 | 21.3 ± 5.2 | > 100 | > 50 | –
5 | CCCCCCOC(=O)c1c(Cl)c(Cl)c(Cl)c(Cl)c1-c1c2cc(I)c(=O)c(I)c-2oc2c(I)c(O)c(I)cc12 [2b, Rose Bengal N-Hexyl Ester, Monosodium Salt] | 0.4 ± 0.3 | > 100 | 0.0007 ± 0.0003 | 60 ± 15 | 15 ± 4 | > 100 | 21.3 ± 5.2 | > 100 | 4.4 ± 1.8 | 1
6 | Cc1cn([C@H]2C[C@H](N=[N+]=[N-])[C@@H](CO)O2)c(=O)[nH]c1=O [AZT, azidothymidine, reference compound] | – | – | – | – | > 5 | – | – | – | 0.01 | –
7 | O=c1nc(NO)ccn1[C@@H]1O[C@H](CO)[C@@H](O)[C@H]1O [NHC, N^4-hydroxycytidine, reference compound] | 4.7 ± 2.9 | 50 ± 18 | 23.6 ± 10.2 | > 100 | – | 25 ± 10 | > 100 | 17 ± 8 | – | –
8 | O=C(O)c1c(Cl)c(Cl)c(Cl)c(Cl)c1-c1c2cc(I)c(=O)c(I)c-2oc2c(I)c(O)c(I)cc12 [compound 1, Rose Bengal, disodium salt, reference compound] | 0.5 ± 0.2 | > 100 | 0.11 ± 0.05 | 43 ± 10 | > 50 | > 100 | 43 ± 10 | > 100 | 18 ± 7 | > 50
